Laboratory results: US12258561B2, “Compositions and methods to promote bone formation and their uses including for the treatment of cancer” (THE RESEARCH FOUNDATION FOR THE STATE UNIVERSITY OF NEW YORK, priority 2014, dated 2025)

Columns and labels:
[1] = tested on: MSC cultures induced to become osteoblasts; test: Osteogenesis: mineral formation in MSC with osteoinduction media (alizarin red-S staining); format: cell-based, human
From the text: Methods: Human Bone Marrow was Collected from Consenting Adult Patients undergoing either an elective primary proximal femoral total hip arthroplasty or elective primary distal femoral total knee arthroplasty (n=6, mean age 65) as a part of an IRB approved study. Human MSC were derived from the adherent fraction of cells derived from each whole bone marrow aspirate collected, while the monocyte population was collected from the non-adherent fraction of the bone marrow. The monocyte fraction was enriched through sub-culture with 100-ng/mL recombinant human macrophage colony-stimulating factor (MCSF; Wyeth). In parallel experiments described below, the femurs from 3-week (n=10) and 16-week (n=20) old male mice were collected and then the bone marrow was flushed from the femur according to the following: A 21-gauge needle was inserted into the femoral intramedular canal after the removal of the proximal and distal ends of the femur. Media was then carefully passed through the proximal end of the femur, which forced the bone marrow to pass out of the bone. Finally, the bone marrow pellet was mechanically disassociated using an 18-gauge needle and then passed through a 70-μm mesh filter. These whole bone marrow aspirates were used to generate osteoclasts. Cells were maintained in Dulbecco's Modification of Eagle's Media (DMEM) containing 10% fetal calf serum (v/v) and 1% penicillin-streptomycin-glutamine (PSG; Cellgro, Mediatech). […] The responsible IACUC committee approved all of the animal studies described in this work.
Osteogenesis: Osteogenic potential in MSC was assayed by chemically inducing mineral formation. MSC from at least three human patients were seeded at 5×10^3 cells per well and allowed to become confluent and woven prior to the addition of osteo-induction media. Induction media consisted of DMEM containing 20% FCS (v/v) and 1% PSG supplemented with 25-μg/mL of acscorbic-2-phosphate (Sigma), 100-nM dexamethasone (Sigma) and the following dosing regimen of β-glycerophosphate (BGP; Sigma): 1× media change with 5-mM BGP, 1× media change with 10-mM BGP and 1× media change with 20-mM of BGP. Met5-ligand (0-, [5-μM] 2.87-, or [50-μM] 28.7-μg; Sigma), naloxone (0-, 400-fg, 400-pg, 400-ng, 400-μg; Sigma) or naltrexone (0-, 378-fg, 378-pg, 378-ng, 378-μg; Sigma) was added as follows: 1) 1×, with the first addition of osteo-induction media, 2) 2×, with the first and second addition of osteo-induction media and 3) with each post-induction media change. […] After the appearance of mineral nodules, cells were fixed with 70% ice-cold EtOH (Sigma) and then stained using 40-mM alizarin red-S (pH 4.2, Sigma). Osteogenesis experiments were repeated at least twice for each patient.

[2] = tested on: monocytes cultured to become osteoclasts; test: TRAP staining and assay of osteoclast number; format: cell-based, human, mouse
Experimental: TRAP Staining and the Assay of Osteoclast Number: Osteoclasts were derived from either an enriched population of human monocytes or from mouse non-enriched whole bone marrow aspirates. Three human patient bone marrow samples were assayed in parallel with samples collected from 3-week (n=10) mouse bone marrow. The monocyte fraction was stimulated to become osteoclasts by culturing 1×10^6 cells with 25-ng/mL of MCSF and 25-ng/mL of recombinant human or mouse RANK-ligand (R&D Systems) in the presence of the met5-ligand ([5-μM] 2.87-, or [50-μM] 28.7-μg; Sigma), naloxone (400-ng or 400-μg; Sigma) or naltrexone (378-ng or 378-μg; Sigma). Osteoclasts were stained with tartrate resistant acid phosphatase (TRAP; Sigma Leukocyte Acid Phosphatase Kit 387-A) and counted when cells stained TRAP-positive and had at least three nuclei. Estimates of osteoclast number were obtained by Cavalieri sampling and a modification of the fractionator technique.

MSC = test: Assay of cell number (MTT) in MSC cultures; format: cell-based, human; details: 1-mM
Experimental: (§1) Assay of Cell Number: Following the addition of 1-mM naloxone or 1-mM naltrexone, viable cell number was determined with the MTT assay. After 72-hours and 120-hours, MTT (5 mg/ml (w/v), Sigma) was added to each well, incubated for 2-hours, after which the cells lysed with 500-μl of DMSO (Sigma). MTT was measured at 570-nm and the effects of therapy on cell proliferation were determined by normalizing treated wells relative to mean values from non-treated wells: Fold change in cell number=100*[treated cells optical density/mean control optical density].

[3] = tested on: Hs822t Ewing's sarcoma of bone tumor cells; test: Assay of cell number (MTT), Hs822t cells; format: cell-based; details: 1-mM, seventy-two hours
From the text: (§2) Methods: Human bone marrow was collected from consenting adult patients undergoing either an elective primary proximal femoral total hip arthroplasty or elective primary distal femoral total knee arthroplasty (n=6, mean age 65) as a part of an IRB approved study. Human MSC were derived from the adherent fraction of whole bone marrow aspirates. Ewing's sarcoma tumor cells (RDES, Hs822 and Hs863) and SaOS2 osteosarcoma tumor cells were obtained from ATCC. Cells were maintained in Dulbecco's Modification of Eagle's Media (DMEM) containing 10% fetal calf serum (v/v) and 1% penicillin-streptomycin-glutamine (PSG; Cellgro, Mediatech).
as §1

[4] = tested on: RDES Ewing's sarcoma of bone tumor cells; test: Assay of cell number (MTT), RDES cells; format: cell-based; details: 1-mM, seventy-two hours
From the text: as §2, §1

[5] = tested on: posterolateral lumbar spine; test: Rat posterolateral spinal fusion of L5-L6 vertebrae, microCT; format: in vivo, Sprague-Dawley rats; details: 2-months
From the text: Rat Posterolateral Spinal Fusion of L5-L6 Vertebrae: 20 male, […] skeletally mature Sprague-Dawley rats underwent bilateral lumbar posterolateral spinal fusion at the L5-L6 vertebrae. […] Under sterile conditions a 2-cm long posterior midline incision centered at L5-L6 vertebrae was made. A muscle-splitting approach was used, lateral to the facet joints, to expose the transverse processes of a particular vertebra. A high-speed 1-mm burr was used to decorticate the transverse processes of the L5-L6 vertebrae. Implants were prepared and implanted between the transverse processes bilaterally in the paraspinal muscle bed. […] Animals were euthanized 2-months (n=5 rats per time point per treatment group for a total of n=20 rats) spines were collected and prepared for micro-CT (μCT) analysis.

Compound: C=CCN1CC[C@]23c4c5ccc(O)c4O[C@H]2C(=O)CC[C@@]3(O)[C@H]1C5 [naloxone]
- mineral accumulation, effect against met5 ([1]; 1-mM naloxone added with 5-μM or 50-μM met5 and osteoinduction media): abrogate the anti-osteogenic effects of met5
- mineral accumulation (red staining) ([1]; between 1-μM and 1-mM with osteoinduction media): substantially increased mineral accumulation
- mineral accumulation ([1]; continuous dosing, with every media change): slightly depressed
- mineral accumulation ([1]; double 'pulse' dose (2x), 1-mM, second 72-hours after the first): substantial increase in mineral accumulation
- mineral accumulation ([1]; single 'pulse' dose (1x), 1-mM): substantial increase in mineral accumulation
- osteoclast number (TRAP staining) ([2]; 1-mM): reduced osteoclast number substantially
- osteoclast number (TRAP staining) ([2]; 1-μM): did not significantly reduce osteoclast number
- MSC proliferation (cell number) (MSC; 72-hours): suppressed, but did not stop
- MSC proliferation (cell number) (MSC; 120-hours): suppressed, but did not stop
- Hs822t tumor cell number relative to control cultures [3]: no effect
- RDES tumor cell number relative to control cultures [4]: decreased significantly
- bone formation in the lumbar spine versus collagen implants alone ([5]; collagen sponge implant, 25-ng BMP2 or 1-mM naloxone): increased bone formation over the collagen implants alone
- Bv/Tv relative to spines implanted with collagen or the control sham surgery group ([5]; naloxone infused collagen implant, 1-mM): substantial increase in By/Tv
